The results in this text go back to PMC6152005, “Fluorination of Naturally Occurring N^6-Benzyladenosine Remarkably Increased Its Antiviral Activity and Selectivity” (Molecules : A Journal of Synthetic Chemistry and Natural …, 2017).

Bounds are passed on as bounds.

In data set [1] the test system is EV71 strain BrCr. As to the kind of experiment: Cytopathic effect (CPE) reduction antiviral assay against EV71 in RD cells (MTS/PMS readout). It is filed as cell-based, human enterovirus 71. Particulars: for EC50: Enterovirus A, EV71 BrCr in RD cells, inhibition of virus-induced cell death, MTS/PMS, at least three independent dose-response curves; for SI (Selectivity Index): SI = CC50/EC50; for SI (Selectivity Index) / increase of SI relative to BAPR: EV71 BrCr, RD cells. Here is the method:
(§1) (Table 2). As previously mentioned, modifications of the N^6-substituent (linker) of the BAPR scaffold led to a remarkable increase of selectivity. Here, we produced a series of BAPR analogues to evaluate the effect of the fluorination of BAPR on the replication of EV71. A cytopathic effect (CPE) reduction assay was performed with the newly synthetized analogues (compounds 5–11) in rhabdomyosarcoma (RD) cells. BAPR, N^6-isopenthenyladenosine, and N^6-furfuryladenosine were included in the screening, and the toxicity of all of the aforementioned compounds was evaluated in parallel on treated-uninfected cells.
An EV71 BrCr laboratory-adapted strain was used at a low multiplicity of infection (MOI) in a standardized antiviral assay. Briefly, freshly harvested rhadbdosarcoma (RD) cells were seeded in a 96-well plate (2 × 10^4 cells/well) and incubated at 37 °C in 5% CO2. The next day, a serial dilution of the compounds was prepared in assay medium and added to the RD cells. Then, the cells were supplemented with the viral suspension. […] Subsequently, the antiviral effect was quantified using a colorimetric readout with 3-(4,5-dimethylthiazol-2-yl)-5-(3-carboxymethoxyphenyl)-2-(4-sulfophenyl)-2H-tetrazolium/phenazine methosulfate (MTS/PMS method), and the concentration of compound at which a 50% inhibition of virus-induced cell death would be observed (EC50) was calculated from the antiviral dose-response curves. A similar assay setup was used to determine the adverse effect of the compound on uninfected, treated cells for the calculation of the CC50 (concentration of compound that reduces overall cell health with 50% as determined by the MTS/PMS method). […]
A general note: Protection from cytopathic effect is a common read-out in antiviral testing.

Data set [2] is described as follows: Toxicity on treated, uninfected RD cells (MTS/PMS readout). It is filed as cell-based. Particulars: human, uninfected rhabdomyosarcoma (RD) cells, uninfected, treated RD cells; MTS/PMS; at least three independent dose-response curves. Here is the method: as §1
(§2) An EV71 BrCr laboratory-adapted strain was used at a low multiplicity of infection (MOI) in a standardized antiviral assay. Briefly, freshly harvested rhadbdosarcoma (RD) cells were seeded in a 96-well plate (2 × 10^4 cells/well) and incubated at 37 °C in 5% CO2. The next day, a serial dilution of the compounds was prepared in assay medium and added to the RD cells. Then, the cells were supplemented with the viral suspension. […] Subsequently, the antiviral effect was quantified using a colorimetric readout with 3-(4,5-dimethylthiazol-2-yl)-5-(3-carboxymethoxyphenyl)-2-(4-sulfophenyl)-2H-tetrazolium/phenazine methosulfate (MTS/PMS method), and the concentration of compound at which a 50% inhibition of virus-induced cell death would be observed (EC50) was calculated from the antiviral dose-response curves. A similar assay setup was used to determine the adverse effect of the compound on uninfected, treated cells for the calculation of the CC50 (concentration of compound that reduces overall cell health with 50% as determined by the MTS/PMS method). The selectivity index (SI) was calculated as a ratio of […].

Data set [3] concerns rhabdomyosarcoma (RD) cells. The data set is described as above. It counts as cell-based. The note with it: for cytotoxicity (in words): uninfected RD cells, highest concentration tested. Here is the method: as §1, §2

For orientation: EC50 means the concentration giving half of the maximal effect. In general, CC50 refers to the concentration at which the toxic effect on the cells reaches its halfway point. High values mean lower toxicity to the cells, low ones greater toxicity to the cells.

`OC[C@H]1O[C@@H](n2cnc3c(NCc4ccco4)ncnc32)[C@H](O)[C@@H]1O` [Compound 3, N^6-furfuryladenosine, reference compound]: in data set [1], the half-maximal effective concentration (EC50) is 1400 ± 300 nM and the “SI (Selectivity Index)” value stood at 5.6. In addition, the cytotoxic concentration (CC50) in data set [2] turned out to be 7800 ± 3400 nM.
For `OC[C@H]1O[C@@H](n2cnc3c(NCc4ccccc4F)ncnc32)[C@H](O)[C@@H]1O` [Compound 5, N^6-(2-fluorobenzyl) adenosine], in that order: 300 ± 50 nM, 44 and 13300 ± 3700 nM.
`OC[C@H]1O[C@@H](n2cnc3c(NCc4cccc(C(F)(F)F)c4)ncnc32)[C@H](O)[C@@H]1O` [Compound 10, N^6-(3-trifluoromethylbenzyl) adenosine]: the “increase of SI relative to BAPR” value in data set [1] (relative to BAPR) was 230 times. Also, the “improvement (gain) in potency as compared to BAPR” value in data set [1] (EV71 replication in RD cells, relative to BAPR) is “four-fold”. Besides, in data set [1], the EC50 is 68 ± 1 nM and the “SI (Selectivity Index)” value was greater than 3456. The compound also gave a CC50 in data set [2] greater than 235000 nM. Also, in data set [3], the “cytotoxicity (in words)” value is listed as “did not show any cytotoxicity”.
As to `OC[C@H]1O[C@@H](n2cnc3c(NCc4cccc(F)c4)ncnc32)[C@H](O)[C@@H]1O` [Compound 6, N^6-(3-fluorobenzyl) adenosine], in data set [1], a half-maximal effect (EC50) was put at 240 ± 90 nM and the “SI (Selectivity Index)” value amounted to 26. The compound also came in with a half-maximal cytotoxic concentration (CC50) in data set [2] of 6200 ± 1800 nM.
For the compound `OC[C@H]1O[C@@H](n2cnc3c(NCc4ccccc4C(F)(F)F)ncnc32)[C@H](O)[C@@H]1O` [Compound 9, N^6-(2-trifluoromethylbenzyl) adenosine], in data set [1], a half-maximal effect (EC50) was put at 1000 ± 100 nM and the “SI (Selectivity Index)” value is greater than 235. In data set [2], this compound showed a cytotoxic concentration (CC50) greater than 235000 nM. Further, the “cytotoxicity (in words)” value in data set [3] is “did not show any cytotoxicity”.
`CC(C)=CCNc1ncnc2c1ncn2[C@@H]1O[C@H](CO)[C@@H](O)[C@H]1O` [Compound 2, N^6-isopenthenyladenosine, reference compound]: in data set [1], the EC50 is 1000 ± 200 nM and the “SI (Selectivity Index)” value turned out to be 6.0. Moreover, the CC50 in data set [2] was found to be 6000 ± 600 nM.
With `OC[C@H]1O[C@@H](n2cnc3c(NCc4ccc(C(F)(F)F)cc4)ncnc32)[C@H](O)[C@@H]1O` [Compound 11, N^6-(4-trifluoromethylbenzyl) adenosine], in data set [1], the EC50 stood at 1000 ± 100 nM and the “SI (Selectivity Index)” value was greater than 235. Besides, the cytotoxic concentration (CC50) in data set [2] was greater than 235000 nM. Besides, the “cytotoxicity (in words)” value in data set [3] was “did not show any cytotoxicity”.
Turning to `OC[C@H]1O[C@@H](n2cnc3c(NCc4c(F)cccc4F)ncnc32)[C@H](O)[C@@H]1O` [Compound 8, N^6-(2,6-difluorobenzyl) adenosine], in data set [1], a half-maximal response (EC50) required 210 ± 10 nM and the “SI (Selectivity Index)” value is greater than 1210. This compound returned a CC50 in data set [2] greater than 250000 nM. In addition, the cytotoxic concentration (CC50) in data set [3] (uninfected, treated RD cells, MTS/PMS, at least three independent dose-response curves) was greater than 254000 nM.
In the case of `OC[C@H]1O[C@@H](n2cnc3c(NCc4ccccc4)ncnc32)[C@H](O)[C@@H]1O` [Compound 1, N^6-benzyladenosine], in data set [1], the EC50 was found to be 280 ± 50 nM and the “SI (Selectivity Index)” value was 15. This compound showed a CC50 in data set [2] of 4300 ± 1600 nM.
In the case of `OC[C@H]1O[C@@H](n2cnc3c(NCc4ccc(F)cc4)ncnc32)[C@H](O)[C@@H]1O` [Compound 7, N^6-(4-fluorobenzyl) adenosine], the “increase of SI relative to BAPR” value in data set [1] (relative to BAPR) turned out to be 1.25 times. Further, in data set [1], the midpoint of the response, the EC50, lay at 140 ± 50 nM and the “SI (Selectivity Index)” value was 19. Moreover, the 50% cytotoxic concentration (CC50) in data set [2] came to 2700 ± 900 nM.
